From PubChem BioAssay (NCI) come the findings set out here.

Some test systems named below: EKVX NSCLC; HCC-2998 colon; HCT-116 colon; HOP-62 NSCLC; HT29 colon; M14 melanoma; MDA-MB-435; SF-268 CNS; SK-OV-3 ovarian; SW-620 colon.
Common to all, as to assay: NCI anticancer screen, dose series, 48 h

Several values for one entry are separate records, joined by “and”; a condition that tells them apart may be missing. Equal entries are not always repeated.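 96-well plates; 48 h exposure; 5 concentrations. Endpoints by linear interpolation between flanking doses. Not reached: highest tested concentration assigned. GI50: concentration for 50% inhibition of growth. TGI: total growth inhibition.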

As for `O=C1CCC(N2C(=O)c3cccc(NCCCC4CCN(CCNC(=O)c5cc6c(o5)C(=O)c5ccccc5C6=O)CC4)c3C2=O)C(=O)N1` (stereo not given), the GI50 in the assay with EKVX NSCLC is 1.5 µM; in the assay with HCC-2998 colon it was 0.695 µM; with HCT-116 colon, 0.465 µM; in the assay with HOP-62 NSCLC, 1.44 µM; with HT29 colon it was 0.823 µM; in the assay on M14 melanoma it was 0.161 µM. The GI50 in the assay with MDA-MB-435 is 0.182 µM; in the assay with SF-268 CNS, 2.06 µM; with SK-OV-3 ovarian it was 2.88 µM; in the assay on SW-620 colon, 0.45 µM. The TGI with EKVX NSCLC is 3.34 µM; in the assay on HCC-2998 colon it was 1.81 µM; with HCT-116 colon it was 2.38 µM; in the assay on HOP-62 NSCLC, 2.86 µM; in the assay on HT29 colon, 8.81 µM; with M14 melanoma, 0.309 µM. The TGI in the assay with MDA-MB-435 stood at 0.335 µM; in the assay with SF-268 CNS it was 7.65 µM; in the assay with SK-OV-3 ovarian it was 8.52 µM; with SW-620 colon, 1.86 µM.
Turning to `CC/C=C\C/C=C/C=C1/C(=O)C=C[C@@H]1C/C=C\CCCC(=O)OC`, the GI50 in the assay on EKVX NSCLC is 3.89 µM; in the assay on HCC-2998 colon, 2.03 µM; in the assay with HCT-116 colon, 0.631 µM; in the assay on HOP-62 NSCLC, 2.45 µM; in the assay with HT29 colon, 2.21 µM; in the assay on M14 melanoma, 3.22 µM. The GI50 in the assay on MDA-MB-435 is 2.05 µM; with SF-268 CNS it was 3.81 µM; in the assay on SK-OV-3 ovarian, 9.25 µM; with SW-620 colon it was 1.11 µM. The TGI in the assay with EKVX NSCLC was 20.1 µM; in the assay with HCC-2998 colon, 3.62 µM; in the assay with HCT-116 colon, 2.43 µM; in the assay with HOP-62 NSCLC it was 5.73 µM; with HT29 colon, 5.57 µM; in the assay with M14 melanoma, 11.8 µM. Further, the TGI in the assay with MDA-MB-435 was 5.08 µM; with SF-268 CNS, 24.7 µM; in the assay with SK-OV-3 ovarian, 49.9 µM; in the assay with SW-620 colon, 7.68 µM.
Regarding `C=CCn1c(=O)c2cnc(Nc3ccc(N4CCN(C)CC4)cc3)nc2n1-c1cccc(C(C)(C)O)n1`, the GI50 is 0.97 µM and 1.36 µM with EKVX NSCLC; 0.388 µM and 1.13 µM in the assay with HCC-2998 colon; 0.321 µM and 0.328 µM with HCT-116 colon; 1.4 µM and 0.802 µM with HOP-62 NSCLC; 0.207 µM and 0.286 µM in the assay with HT29 colon; 0.191 µM and 0.213 µM in the assay on M14 melanoma. For the same molecule, the GI50 is 0.201 µM and 0.247 µM with MDA-MB-435; 1.49 µM and 1.69 µM in the assay on SF-268 CNS; 0.251 µM and 0.237 µM in the assay on SK-OV-3 ovarian; 0.316 µM and 0.448 µM with SW-620 colon. Further, the TGI was 30.1 µM and > 10 µM in the assay on EKVX NSCLC; 7.26 µM and > 7.72 µM with HCC-2998 colon; 11.4 µM and > 10 µM in the assay with HCT-116 colon; 14.4 µM and > 10 µM in the assay with HOP-62 NSCLC; 0.643 µM and > 3.82 µM with HT29 colon; 11.2 µM and > 5.86 µM in the assay on M14 melanoma. Moreover, the TGI in the assay with MDA-MB-435 is 0.561 µM and 0.666 µM; in the assay with SF-268 CNS, 51.9 µM and > 10 µM; with SK-OV-3 ovarian, 8.08 µM and > 3.11 µM; in the assay with SW-620 colon, 12.3 µM and > 10 µM.
For `NNc1c2ccccc2nc2ccccc12`, the GI50 was 1.89 µM in the assay on EKVX NSCLC; 7.59 µM in the assay on HCC-2998 colon; 3.99 µM with HCT-116 colon; 5.56 µM with HOP-62 NSCLC; 3.28 µM in the assay with HT29 colon; 6.11 µM with M14 melanoma. Further, the GI50 was 5.08 µM in the assay with MDA-MB-435, 5.94 µM in the assay with SF-268 CNS, 6.91 µM with SK-OV-3 ovarian and 4.06 µM in the assay on SW-620 colon. In addition, the TGI stood at 26.8 µM in the assay on EKVX NSCLC; 63.2 µM with HCC-2998 colon; 17.6 µM in the assay with HCT-116 colon; 79 µM in the assay on HOP-62 NSCLC; 16.1 µM in the assay on HT29 colon; 21.8 µM with M14 melanoma. The TGI with MDA-MB-435 was 23.4 µM; with SF-268 CNS, over 100 µM; in the assay on SK-OV-3 ovarian, over 100 µM; with SW-620 colon, 27.4 µM.
With `O=C(NN1C(=O)CSC1c1ccc(F)cc1)C(O)c1ccccc1` (stereo not given), the GI50 in the assay on EKVX NSCLC, in the assay on HCC-2998 colon, with HCT-116 colon, in the assay on HOP-62 NSCLC, in the assay on HT29 colon and in the assay on M14 melanoma was over 100 µM each time. Also, the GI50 with MDA-MB-435, in the assay with SF-268 CNS, in the assay on SK-OV-3 ovarian and in the assay with SW-620 colon was over 100 µM each time. Also, the TGI in the assay on EKVX NSCLC, with HCC-2998 colon, in the assay with HCT-116 colon, in the assay on HOP-62 NSCLC, in the assay with HT29 colon and in the assay with M14 melanoma was over 100 µM throughout. For the same molecule, the TGI with MDA-MB-435, in the assay on SF-268 CNS, with SK-OV-3 ovarian and with SW-620 colon was over 100 µM in each case.
Consider `Nc1n[nH]c2ccc([C@@H]3Nc4cc5[nH]ncc5cc4[C@H]4C5CCC(C5)[C@@H]34)cc12` (stereo not given in full), for which the GI50 in the assay with EKVX NSCLC was 0.485 µM; in the assay on HCC-2998 colon it was 0.789 µM; in the assay with HCT-116 colon, 0.416 µM; with HOP-62 NSCLC it was 0.689 µM; in the assay on HT29 colon, 0.367 µM; with M14 melanoma, 0.294 µM. The GI50 in the assay with MDA-MB-435 is 0.3 µM; with SF-268 CNS, 1.71 µM; in the assay on SK-OV-3 ovarian it was 16 µM; in the assay with SW-620 colon, 0.392 µM. Besides, the TGI in the assay on EKVX NSCLC is over 100 µM; with HCC-2998 colon, 49.1 µM; with HCT-116 colon it was over 100 µM; in the assay with HOP-62 NSCLC, 98 µM; in the assay with HT29 colon, over 44.3 µM; with M14 melanoma, over 100 µM. Besides, the TGI was 6.85 µM in the assay on MDA-MB-435, over 100 µM with SF-268 CNS, over 100 µM in the assay with SK-OV-3 ovarian and over 100 µM in the assay on SW-620 colon.
On to `COc1ccc2c(c1)/C(=C\c1c[nH]c3ccc(OC)cc13)C(=O)N2`, for which the GI50 with EKVX NSCLC is 3.01 µM; in the assay on HCC-2998 colon, 3.77 µM; in the assay on HCT-116 colon, 2.45 µM; in the assay with HOP-62 NSCLC, 2.72 µM; in the assay with HT29 colon, 4.07 µM; with M14 melanoma, 1.91 µM. The GI50 with MDA-MB-435 was 0.877 µM; in the assay on SF-268 CNS, 3.61 µM; with SK-OV-3 ovarian, 2.58 µM; in the assay with SW-620 colon, 2.77 µM. For the same molecule, the TGI with EKVX NSCLC was determined as 15.4 µM; in the assay with HCC-2998 colon, 14.7 µM; with HCT-116 colon it was 10.6 µM; with HOP-62 NSCLC, 12.5 µM; with HT29 colon it was 14.9 µM; in the assay on M14 melanoma it was 6.14 µM. In addition, the TGI in the assay with MDA-MB-435 turned out to be 5.17 µM; in the assay with SF-268 CNS it was 15.3 µM; in the assay with SK-OV-3 ovarian it was 8.64 µM; in the assay with SW-620 colon it was 11 µM.
